Counter-ions that a name gives are not always drawn.
Columns and labels:
[1] = biological target: Beta-1 adrenergic receptor (Cavia porcellus) (UniProt B0FL73)
[2] = biological target: Beta-1 adrenergic receptor (Cavia porcellus) (UniProt B0FL73); remark: listed apart in the source
[3] = Acid dissociation constant was determined; format: ADME
[4] = biological target: Beta-2 adrenergic receptor (Cavia porcellus) (UniProt Q8K4Z4); conditions: Trachea
Beta-2 adrenergic receptor (Cavia porcellus), sequence (Q8K4Z4 whole entry, looked up): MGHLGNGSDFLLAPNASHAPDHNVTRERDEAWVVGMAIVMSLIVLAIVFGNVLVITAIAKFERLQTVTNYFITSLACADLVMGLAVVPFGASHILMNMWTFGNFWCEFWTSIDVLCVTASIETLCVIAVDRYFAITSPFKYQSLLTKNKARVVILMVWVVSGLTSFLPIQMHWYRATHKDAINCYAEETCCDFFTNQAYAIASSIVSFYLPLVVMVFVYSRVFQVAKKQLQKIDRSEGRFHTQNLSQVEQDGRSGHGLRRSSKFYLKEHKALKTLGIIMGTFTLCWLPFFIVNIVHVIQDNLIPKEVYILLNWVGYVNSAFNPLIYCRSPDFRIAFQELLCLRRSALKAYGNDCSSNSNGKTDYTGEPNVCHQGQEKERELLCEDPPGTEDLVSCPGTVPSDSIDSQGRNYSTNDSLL

Beta-1 adrenergic receptor (Cavia porcellus), sequence (B0FL73 1-467): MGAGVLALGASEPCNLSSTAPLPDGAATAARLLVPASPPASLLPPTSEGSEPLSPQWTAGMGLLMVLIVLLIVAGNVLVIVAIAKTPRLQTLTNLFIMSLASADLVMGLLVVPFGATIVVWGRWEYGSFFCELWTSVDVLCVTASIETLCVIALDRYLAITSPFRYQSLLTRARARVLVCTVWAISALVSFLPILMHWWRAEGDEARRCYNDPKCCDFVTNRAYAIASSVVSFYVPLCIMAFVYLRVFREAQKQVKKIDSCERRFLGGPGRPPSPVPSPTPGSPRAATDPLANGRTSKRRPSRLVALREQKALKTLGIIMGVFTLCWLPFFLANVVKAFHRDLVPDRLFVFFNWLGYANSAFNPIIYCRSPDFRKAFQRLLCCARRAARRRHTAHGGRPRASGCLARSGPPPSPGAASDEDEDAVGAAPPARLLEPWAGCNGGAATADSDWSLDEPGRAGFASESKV

IAR [1] | pD2 [2] | pKa [3] | IAR [4] | Structure (SMILES)
1 | 7.52 | 8.77 | 0.95 | COc1cc(CC2NCCc3cc(O)c(O)cc32)cc(OC)c1OC (stereo not drawn) [TRETOQUINOL HYDROCHLORIDE]
0.96 | – | 8.11 | 0.95 | COc1cc(CC2NCCc3c2cc(O)c(O)c3F)cc(OC)c1OC (stereo not drawn)
– | – | 7.86 | – | COc1cc(CC2NCCc3cc(O)c(O)c(F)c32)cc(OC)c1OC (stereo not drawn)
